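48-hour exposure; five concentrations; linearly interpolated endpoints. Here, GI50 denotes the concentration required for 50% inhibition of growth. TGI is the concentration that stops growth completely.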
What was measured:
Test in all cases: DTP human tumour cell line panel, 48 h
MCF7 breast = tested on: MCF7 breast
BT-549 breast = tested on: BT-549 breast
PC-3 prostate = tested on: PC-3 prostate
T-47D breast = tested on: T-47D breast
DU-145 prostate = tested on: DU-145 prostate
MDA-MB-435 = tested on: MDA-MB-435

NS(=O)(=O)c1ccc(CCN=C=S)cc1
GI50 (MCF7 breast): 0.808 µM
TGI (MCF7 breast): 3.13 µM
GI50 (BT-549 breast): 2.03 µM
TGI (BT-549 breast): 4.37 µM
GI50 (PC-3 prostate): 2.03 µM
TGI (PC-3 prostate): 5.23 µM
GI50 (T-47D breast): 0.638 µM
TGI (T-47D breast): 3.36 µM
GI50 (DU-145 prostate): 1.8 µM
TGI (DU-145 prostate): 3.83 µM
GI50 (MDA-MB-435): 1.91 µM
TGI (MDA-MB-435): 3.88 µM

COc1cc(-c2cc(-c3nc4ccc(Cl)cc4[nH]3)[nH]n2)cc(OC)c1OC
GI50 (MCF7 breast): 2.17 µM
TGI (MCF7 breast): 7.75 µM
GI50 (BT-549 breast): 2.54 µM
TGI (BT-549 breast): 8.35 µM
GI50 (PC-3 prostate): 2.47 µM
TGI (PC-3 prostate): 8.29 µM
GI50 (T-47D breast): 1.58 µM
TGI (T-47D breast): 4.54 µM
GI50 (DU-145 prostate): 3.27 µM
TGI (DU-145 prostate): 13.4 µM
GI50 (MDA-MB-435): 3.3 µM
TGI (MDA-MB-435): 12.7 µM

C=C(C)[C@@H]1CC[C@]2(C)[C@H](CC[C@@H]3[C@H]4[C@H]5OC[C@@]4(CCC5(C)C)CC[C@]32C)[C@@]1(C)CCCN
GI50 (MCF7 breast): 1.57 µM
TGI (MCF7 breast): 3.04 µM
GI50 (BT-549 breast): 1.67 µM
TGI (BT-549 breast): 3.12 µM
GI50 (PC-3 prostate): 1.74 µM
TGI (PC-3 prostate): 3.29 µM
GI50 (T-47D breast): 1.88 µM
TGI (T-47D breast): 4.21 µM
GI50 (DU-145 prostate): 1.86 µM
TGI (DU-145 prostate): 3.36 µM
GI50 (MDA-MB-435): 1.76 µM
TGI (MDA-MB-435): 3.24 µM

COc1ccc2c(c1)CC[C@@H]1[C@@H]2CC[C@]2(C)C(c3ccco3)=C(C=O)C[C@@H]12
GI50 (MCF7 breast): 8.2 µM
TGI (MCF7 breast): > 100 µM
GI50 (BT-549 breast): 17.7 µM
TGI (BT-549 breast): 43.3 µM
GI50 (PC-3 prostate): 5.66 µM
TGI (PC-3 prostate): 37.3 µM
GI50 (T-47D breast): 18.8 µM
TGI (T-47D breast): 92.3 µM
GI50 (DU-145 prostate): 7.82 µM
TGI (DU-145 prostate): 27 µM
GI50 (MDA-MB-435): 2.21 µM
TGI (MDA-MB-435): 5.88 µM

COc1ccccc1CNCCCN1C(=O)c2ccc3c4c(ccc(c24)C1=O)C(=O)N(CCCNCCCN)C3=O
GI50 (MCF7 breast): 0.123 µM
TGI (MCF7 breast): 2.43 µM
GI50 (BT-549 breast): 1.44 µM
TGI (BT-549 breast): 3.81 µM
GI50 (PC-3 prostate): 0.653 µM
TGI (PC-3 prostate): 4.61 µM
GI50 (T-47D breast): 0.791 µM
TGI (T-47D breast): 3.08 µM
GI50 (DU-145 prostate): 0.63 µM
TGI (DU-145 prostate): 2.39 µM
GI50 (MDA-MB-435): 0.57 µM
TGI (MDA-MB-435): 2.72 µM

COC(=O)CCC/C=C\C[C@H]1C=CC(=O)/C1=C/C[C@@H](O)C/C=C\CC(F)(F)F
GI50 (MCF7 breast): 0.393 µM
TGI (MCF7 breast): 10.3 µM
GI50 (BT-549 breast): 2.12 µM
TGI (BT-549 breast): 5.37 µM
GI50 (PC-3 prostate): 2.79 µM
TGI (PC-3 prostate): 7.31 µM
GI50 (T-47D breast): 3.06 µM
TGI (T-47D breast): 16.3 µM
GI50 (DU-145 prostate): 3.89 µM
TGI (DU-145 prostate): 14.7 µM
GI50 (MDA-MB-435): 2.05 µM
TGI (MDA-MB-435): 10.6 µM

COc1ccc(/C(C)=N/OC(=O)c2c(-c3ccccc3Cl)noc2C)cc1CN1CCOCC1
TGI (MCF7 breast): 46.3 µM
TGI (BT-549 breast): 54.9 µM
TGI (PC-3 prostate): 98.1 µM
TGI (T-47D breast): 71 µM
TGI (DU-145 prostate): > 100 µM
TGI (MDA-MB-435): 57.3 µM

COc1cc(-n2cc(-c3ccc(Cl)cc3)[nH]c2=O)cc(OC)c1OC
GI50 (MCF7 breast): 35 µM
TGI (MCF7 breast): > 100 µM
GI50 (BT-549 breast): 27.1 µM
TGI (BT-549 breast): 71.8 µM
GI50 (PC-3 prostate): 16.4 µM
TGI (PC-3 prostate): 51.2 µM
GI50 (DU-145 prostate): 57.4 µM
TGI (DU-145 prostate): > 100 µM
GI50 (MDA-MB-435): 88.4 µM
TGI (MDA-MB-435): > 100 µM

N#Cc1ccnc(N2C(=O)CC[C@H]2C(=O)N(c2cncc(F)c2)[C@H](C(=O)NC2CC(F)(F)C2)c2ccccc2Cl)c1
GI50 (MCF7 breast): 27 µM
TGI (MCF7 breast): > 100 µM
GI50 (BT-549 breast): > 100 µM
TGI (BT-549 breast): > 100 µM
GI50 (PC-3 prostate): > 100 µM
TGI (PC-3 prostate): > 100 µM
GI50 (T-47D breast): > 100 µM
TGI (T-47D breast): > 100 µM
GI50 (DU-145 prostate): 82.5 µM
TGI (DU-145 prostate): > 100 µM
GI50 (MDA-MB-435): 64 µM
TGI (MDA-MB-435): > 100 µM

Nc1ccc(/C=N/Nc2ccnc3c(N)cccc23)c2cccnc12
GI50 (MCF7 breast): 1.48 µM
TGI (MCF7 breast): 3.12 µM
GI50 (T-47D breast): 2.27 µM
TGI (T-47D breast): 5.02 µM
GI50 (DU-145 prostate): 1.68 µM
TGI (DU-145 prostate): 3.13 µM
GI50 (MDA-MB-435): 1.64 µM
TGI (MDA-MB-435): 3.16 µM

C[C@H]1[C@H](C)CC[C@]2(C(=O)O)CC[C@]3(C)C(=CC[C@@H]4[C@@]5(C)C/C(=C/c6ccco6)C(=O)C(C)(C)[C@@H]5CC[C@]43C)[C@H]12
GI50 (MCF7 breast): 3.17 µM
TGI (MCF7 breast): 13 µM
GI50 (BT-549 breast): 4.76 µM
TGI (BT-549 breast): 18.9 µM
GI50 (PC-3 prostate): 2.89 µM
TGI (PC-3 prostate): 13.3 µM
GI50 (T-47D breast): 3.79 µM
TGI (T-47D breast): 33.8 µM
GI50 (DU-145 prostate): 6.41 µM
TGI (DU-145 prostate): 30.9 µM
GI50 (MDA-MB-435): 6.58 µM
TGI (MDA-MB-435): 20.4 µM

Cn1cc(C2=C(c3cn(CCN)c4ccccc34)C(=O)NC2=O)c2ccccc21
GI50 (MCF7 breast): 3.72 µM
TGI (MCF7 breast): > 23.4 µM
GI50 (BT-549 breast): 7.82 µM
TGI (BT-549 breast): > 23.8 µM
GI50 (PC-3 prostate): 5.14 µM
TGI (PC-3 prostate): > 19.7 µM
GI50 (T-47D breast): 5.32 µM
TGI (T-47D breast): 14.7 µM
GI50 (DU-145 prostate): 8.63 µM
TGI (DU-145 prostate): > 25 µM
GI50 (MDA-MB-435): 3.81 µM
TGI (MDA-MB-435): 19.4 µM

CCOC(=O)c1sc(=S)c2c(C(=O)OCC)c(C(=O)OCC)sc2c1C(=O)OCC
GI50 (MCF7 breast): 15.2 µM
TGI (MCF7 breast): 29.9 µM
GI50 (BT-549 breast): 21.5 µM
TGI (BT-549 breast): 45.4 µM
GI50 (PC-3 prostate): 8.17 µM
TGI (PC-3 prostate): 21.2 µM
GI50 (T-47D breast): 23.7 µM
TGI (T-47D breast): 95.5 µM
GI50 (DU-145 prostate): 17.4 µM
TGI (DU-145 prostate): 39 µM
GI50 (MDA-MB-435): 27.4 µM
TGI (MDA-MB-435): 67.2 µM

CCCCCCCC[N+](C)(CCCCCCCC)CCCCCCCC
GI50 (MCF7 breast): 0.322 µM
TGI (MCF7 breast): 1.14 µM
GI50 (BT-549 breast): 0.309 µM
TGI (BT-549 breast): 0.977 µM
GI50 (PC-3 prostate): 0.24 µM
TGI (PC-3 prostate): 1.02 µM
GI50 (T-47D breast): 0.258 µM
TGI (T-47D breast): 1.73 µM
GI50 (DU-145 prostate): 0.414 µM
TGI (DU-145 prostate): 1.41 µM
GI50 (MDA-MB-435): 0.273 µM
TGI (MDA-MB-435): 1.01 µM

NCCC(O)(P(=O)(O)O)P(=O)(O)O
GI50 (MCF7 breast): 37 µM
TGI (MCF7 breast): > 100 µM
GI50 (BT-549 breast): > 100 µM
TGI (BT-549 breast): > 100 µM
GI50 (T-47D breast): > 100 µM
TGI (T-47D breast): > 100 µM
GI50 (DU-145 prostate): > 100 µM
TGI (DU-145 prostate): > 100 µM
GI50 (MDA-MB-435): > 100 µM
TGI (MDA-MB-435): > 100 µM

CSc1nc2sc3cc(Cl)ccc3n2c(=N)c1C#N
GI50 (MCF7 breast): 3.31 µM
TGI (MCF7 breast): > 100 µM
GI50 (BT-549 breast): 25.4 µM
TGI (BT-549 breast): > 100 µM
GI50 (PC-3 prostate): 42.2 µM
TGI (PC-3 prostate): > 100 µM
GI50 (T-47D breast): 23.7 µM
TGI (T-47D breast): > 100 µM
GI50 (DU-145 prostate): > 68.7 µM
TGI (DU-145 prostate): > 100 µM
GI50 (MDA-MB-435): > 100 µM
TGI (MDA-MB-435): > 100 µM

NCCNC(=S)S
TGI (MCF7 breast): > 100 µM
TGI (BT-549 breast): > 100 µM
TGI (PC-3 prostate): > 100 µM
TGI (T-47D breast): > 100 µM
TGI (DU-145 prostate): > 100 µM
TGI (MDA-MB-435): > 100 µM

CC(=O)N=c1ccc2nc3c(cc(N)c4ccccc43)oc-2c1
GI50 (MCF7 breast): 0.753 µM
TGI (MCF7 breast): 2.4 µM
GI50 (BT-549 breast): 2.47 µM
TGI (BT-549 breast): 7.46 µM
GI50 (PC-3 prostate): 1.05 µM
TGI (PC-3 prostate): 5.83 µM
GI50 (DU-145 prostate): 1.66 µM
TGI (DU-145 prostate): 3.03 µM
GI50 (MDA-MB-435): 0.207 µM
TGI (MDA-MB-435): 0.421 µM

Nc1ncnc2c1ncn2C1OC(CO)=CC1O (centres undefined)
TGI (MCF7 breast): > 37.5 µM
TGI (PC-3 prostate): > 37.5 µM
TGI (T-47D breast): > 37.5 µM
TGI (DU-145 prostate): > 37.5 µM
TGI (MDA-MB-435): > 37.5 µM

CCOC(=O)c1sc(Nc2ccc(Cl)cc2)nc1C
GI50 (MCF7 breast): 1.64 µM
TGI (MCF7 breast): 6.14 µM
GI50 (BT-549 breast): 1.48 µM
TGI (BT-549 breast): 3.29 µM
GI50 (PC-3 prostate): 1.37 µM
TGI (PC-3 prostate): 3.42 µM
GI50 (DU-145 prostate): 2.47 µM
TGI (DU-145 prostate): 9.04 µM
GI50 (MDA-MB-435): 2.12 µM
TGI (MDA-MB-435): 4.75 µM

From PubChem BioAssay (NCI)
